ChEMBL document CHEMBL5233234, “True or false? Challenges and recent highlights in the development of aspirin prodrugs” (Eur J Med Chem, 2020)
Blank lines part the entries; values can stand above or below the molecule they belong to.

What was measured:
[1] = Half life in human plasma; assay type: ADME, cell-free
[2] = Half life in human blood; assay type: ADME, tissue-based
[3] = Half life of compound in human plasma; assay type: ADME, cell-free
[4] = Half life of compound in PBS buffer at pH 7.4; assay type: physicochemical
[5] = Half life in human plasma at 10 uM; assay type: ADME, cell-free
[6] = Half life of compound in PBS buffer at pH 7.4 at 50 uM by HPLC analysis; assay type: physicochemical
[7] = Half life in human plasma measured after 2 days
[8] = Half life in human liver microsomes at 1 uM measured up to 30 mins by LC-MS/MS analysis; assay type: ADME, Microsome
[9] = Half life in human plasma by LC-MS/MS analysis; assay type: ADME, cell-free

Compound: CC(=O)Oc1ccccc1C(=O)OC[S+](C)[O-] (centres undefined)
- half-life [1]: 14 min

Compound: COc1ccccc1COC1(C)OC(=O)c2ccccc2O1 (centres undefined)
- half-life [4]: 26.7 min

Compound: CC(=O)Oc1ccccc1C(=O)OCOC(=O)c1ccc(OCCCO[N+](=O)[O-])c(OC(=O)CCN)c1
- half-life at 10 µM [5]: < 1 min
- half-life at 50 µM [6]: 57 min

Compound: CC(=O)Oc1ccccc1C(=O)Oc1ccccc1C=O
- half-life at 48 h [7]: 15 min

Compound: CCOP(=O)(OCC)OCC(COC(=O)c1ccccc1OC(C)=O)OP(=O)(OCC)OCC (centres undefined)
- half-life at 1 µM [8]: 28 min

Next, values leading:

- half-life [2]: 1 min
Compound: CC(=O)Oc1ccccc1C(=O)O[C@@H]1CO[C@H]2[C@@H]1OC[C@@H]2OC(=O)c1ccccc1O

- half-life [3]: 1 min
Compound: CC(=O)Oc1ccccc1C(=O)O[C@H]1CO[C@H]2[C@@H]1OC[C@H]2OC(=O)c1ccccc1OC(C)=O

- t1/2 [9]: 0.183 min
Compound: CC(=O)Oc1ccccc1C(=O)O[C@H]1CO[C@H]2[C@@H]1OC[C@H]2O[N+](=O)[O-]
